The numbers were not newly measured in publication PMC4512239 (Clinical cancer research : an official journal of the …, 2015), which cites them from elsewhere.

Where only a bound is given, the exact number is not on record here.

The conditions of this data set: allosteric m-TOR inhibitors; cited from earlier work.
In the case of `CO[C@H]1C[C@@H]2CC[C@@H](C)[C@@](O)(O2)C(=O)C(=O)N2CCCC[C@H]2C(=O)O[C@H]([C@H](C)C[C@@H]2CC[C@@H](OC(=O)C(C)(CO)CO)[C@H](OC)C2)CC(=O)[C@H](C)/C=C(\C)[C@@H](O)[C@@H](OC)C(=O)[C@H](C)C[C@H](C)/C=C/C=C/C=C/1C` [temsirolimus], the half-life is not below 24 h.

For `CO[C@H]1C[C@@H]2CC[C@@H](C)[C@@](O)(O2)C(=O)C(=O)N2CCCC[C@H]2C(=O)O[C@H]([C@H](C)C[C@@H]2CC[C@@H](OCCO)[C@H](OC)C2)CC(=O)[C@H](C)/C=C(\C)[C@@H](O)[C@@H](OC)C(=O)[C@H](C)C[C@H](C)/C=C/C=C/C=C/1C` [everolimus], the half-life is not below 24 h.

For `CO[C@H]1C[C@@H]2CC[C@@H](C)[C@@](O)(O2)C(=O)C(=O)N2CCCC[C@H]2C(=O)O[C@H]([C@H](C)C[C@@H]2CC[C@@H](OP(C)(C)=O)[C@H](OC)C2)CC(=O)[C@H](C)/C=C(\C)[C@@H](O)[C@@H](OC)C(=O)[C@H](C)C[C@H](C)/C=C/C=C/C=C/1C` [ridaforolimus], the half-life is not below 24 h.
